{"source": "patent US20170281772A1", "about": "“A NEURAL SUBSTRATE FOR SUGAR PREFERENCE” (The Trustees of Columbia University in the City of New York, priority 2014, published 2017)", "key": {"[1]": {"test_system": "neurons in the caudal nucleus of the solitary tract (cNST)", "assay": "cFos staining of the nucleus of the solitary tract after direct infusion to the gut", "format": "in vivo", "conditions": "for Fos expression in the cNST when gavaged: gavage, compared with animals drinking the same solution; for cFos labeling of cNST neurons after gut infusion: wild type animals, 0.5 mL infused directly into the gut", "protocol": "Wild type animals were infused directly into the gut with 0.5 mL of water (FIG. 4A), sucrose (FIG. 4B), or artificial sweetener (FIG. 4C). […] Green: c-fos antibody staining. Magenta; a neural stain (neurotrace) (FIG. 4A-4C)."}, "[2]": {"test_system": "neurons in the caudal nucleus of the solitary tract (cNST)", "assay": "cFos staining of the caudal nucleus of the solitary tract after drinking the solution", "format": "in vivo, mice", "conditions": "for cFos labeling of cNST neurons: wild-type animals, water deprived thirty-six hours, 1 mL solution by drinking", "protocol": "To determine where sugar preference is encoded, applicants screen brain regions for increased expression of Fos, a proxy for neural activity, in animals challenged with sugar but not water or artificial sweetener.\nWild-type animals were water deprived for thirty-six hours and then given access to 1 mL solution of water (FIG. 3A), sucrose (FIG. 3), or artificial sweetener (FIG. 3C). Tasteless (TrpM5 knockout) animals were given water (FIG. 3D) or sucrose (FIG. 3E), The caudal nucleus of the solitary tract was analyzed using cFos staining. […] Green: c-fos antibody staining. Magenta: a neural stain (neurotrace) (FIG. 3A-3D)."}, "[3]": {"assay": "two-solution preference behavioral assay, artificial sweetener (AceK) versus sucrose, naive animals", "format": "in vivo, mice", "excerpt": "To explicitly test for sugar preference in mice, applicants developed a simple behavioral assay.\nDuring five minute trials, two groups of five naive animals were presented with an intensely sweet, artificial compound (Acesulfame potassium or AceK) and a less sweet natural sugar (sucrose) . […] Animals were then returned to their home cage and given access to either artificial sweetener (Group 1) or natural sugar (Group 2) for one hour. […] Twenty four hours later, Group 1 was given natural sugar while Group 2 was given artificial sweetener."}, "activity in the cNST": {"test_system": "activity in the cNST", "assay": "silencing of cNST activity by cannula injection during sucrose exposure, sugar preference formation", "format": "in vivo", "excerpt": "When given a choice between highly concentrated artificial sweetener and a low concentration of natural sweet, animals consume the sweeter substance. However, after one exposure to natural sugar, animals switch their preference to the natural sweet (See FIG. 5). If the cNST is indeed an essential brain center for establishing sugar preference, a prediction would be that silencing the activity of the neurons in this nucleus during exposure to sugar should prevent a preference from forming. To determine if this is the case, applicants implanted a cannula above the cNST of naive animals, waited 2 weeks for recovery, and then assessed the ability of these animals to form a sugar preference. […] Prior to receiving sugar in their home cage, animals were injected with a glutamate receptor antagonist (50 nL of NBQX, […]) to reversibly silence activity in the cNST."}, "[4]": {"assay": "consumption trials of sucralose with or without MDG in a satiated animal", "format": "in vivo", "conditions": "32 mM sucralose+0.4 M MDG vs 32 mM sucralose alone, 20 trials", "protocol": "A satiated animal was given 32 mM sucralose for the first 11 trials, and then given either 32 mM sucralose alone, or 32 mM sucralose+0.4 M MDG. […] Shown are 20 trials."}}, "note": "“Also recorded” adds a separate entry of the source.", "data": [{"smiles": "OC[C@H]1O[C@@](CO)(O[C@H]2O[C@H](CO)[C@@H](O)[C@H](O)[C@H]2O)[C@@H](O)[C@@H]1O", "note": "[sucrose]", "values": [{"measurement": "Fos expression in the cNST when gavaged", "setting": "[1]", "result": "identical"}, {"measurement": "cFos labeling of cNST neurons after gut infusion", "setting": "[1]", "result": "robustly labeled"}, {"measurement": "cFos labeling of cNST neurons in tasteless animals", "setting": "[2]; TrpM5 knockout animals, compared with wild type", "result": "identical pattern of labeling"}, {"measurement": "cFos labeling of cNST neurons", "setting": "[2]", "result": "robustly labeled"}, {"measurement": "preference between artificial sweetener and sucrose after exposure to sucrose", "setting": "[3]; after one hour home-cage access to natural sugar, final preference test", "result": "animals change preference between artificial sweetener and sucrose after one exposure to sucrose; also recorded: both groups prefer the natural sugar"}]}, {"smiles": "NS(=O)(=O)c1cccc2c1c([N+](=O)[O-])cc1nc(O)c(O)nc12", "note": "[NBQX]", "values": [{"measurement": "formation of sugar preference with the cNST silenced", "setting": "activity in the cNST; 50 nL of NBQX, 5 pg/mL, injected above the cNST prior to sugar in home cage, tested twenty-four hours later", "result": "continued to prefer the artificial sweetener"}, {"measurement": "sugar preference formation after washout", "setting": "activity in the cNST; after the drug washed out", "result": "regained their ability to form a preference"}, {"measurement": "effect of silencing on sweet taste", "setting": "activity in the cNST; short-access assays, same animals", "result": "does not abolish sweet taste"}]}, {"smiles": "COC1OC(CO)C(O)C(O)C1O", "note": "[MDG, Alpha-Methyl-D-Glucopyranose]", "values": [{"measurement": "appetitiveness/consumption of sucralose", "setting": "[4]", "result": "dramatically increases the appetitiveness/consumption of sucralose; also recorded: transforms a sucralose solution into the preferred Artificial Sweetener"}]}, {"smiles": "CC1=CC(=O)NS(=O)(=O)O1", "note": "[AceK, Acesulfame potassium]", "values": [{"measurement": "Fos expression in the cNST when gavaged", "setting": "[1]", "result": "identical"}, {"measurement": "cFos labeling of cNST neurons after gut infusion", "setting": "[1]", "result": "almost no labeled cells at all"}, {"measurement": "cFos labeling of cNST neurons", "setting": "[2]", "result": "almost no labeled cells at all"}, {"measurement": "initial consumption, AceK versus sucrose", "setting": "[3]; five minute trials, naive animals, before home-cage exposure", "result": "much more AceK than sucrose"}]}]}
